Experimental data published in patent publication US8389541B2, “Inhibitors of protein tyrosine kinase activity” (MethylGene Inc., priority 2007, dated 2013).
Like-named read-outs stand apart in the source and are kept apart here.

What was measured:
VEGF receptor KDR = target: T1, VEGF receptor KDR (Homo sapiens, UniProt P35968); assay: In vitro receptor tyrosine kinase assay (DELFIA), VEGF receptor KDR; assay type: biochemical; settings: GST-VEGFR2 806-1356, 0.6 uM ATP; read-out: VEGFR IC50
T1 construct: made in house; host or cells: Sf9 cells (Spodoptera frugiperda), baculovirus
Text: In the case of VEGF receptor KDR a 1.6-kb cDNA corresponding to the catalytic domain of VEGFR2 or KDR (Genbank accession number AF035121 amino acid 806 to 1356) is cloned into the Pst I site of the pDEST20 Gateway vector (Invitrogen) for the production of a GST-tagged version of that enzyme.
The GST-VEGFR2806-1356 protein is expressed in Sf9 cells (Spodoptera frugiperda) upon infection with recombinant baculovirus construct.
The supernatant is loaded onto a GST-agarose column (Sigma) equilibrated with PBS pH 7.3. Following a four column volume (CV) wash with PBS pH 7.3+1% Triton X-100 and 4 CV wash with buffer B (50 mM Tris pH 8.0, 20% glycerol and 100 mM NaCl), bound proteins are step eluted with 5 CV of buffer B supplemented with 5 mM DTT and 15 mM glutathion. […] Final GST-VEGFR2806-1356 protein preparations concentrations are about 0.7 mg/ml with purity approximating 70%.

A549 cells = assay: Wound healing assay in A549 cells (HGF-stimulated); assay type: cell-based; settings: Homo sapiens, last dose that inhibited gap closing by more than 25%, 24 h, read-out: A549 WOUND_HEALING IC50
Description: Wound healing assay in A549 cells. A549 cells (ATCC) are seeded in DMEM low glucose medium complemented with 10% FBS into 24-well plates at a density of 7.5×10^4 cells/well and grown to confluence (48 h). Inhibitors were added to the medium at a range of doses (0.00032-10 uM) for 3 h at which point a gap is introduced by scraping cells with a P1000 pipette tip. Cells are then stimulated to migrate by the addition of HGF (in the form of conditioned medium from 293T cells over-expressing the human HGF gene) and the culture is continued for 24 h. […] For the purpose of standardization, a control is carried on every assay plates.

DU145 cells = assay: Scatter assay in DU145 cells (HGF-stimulated); assay type: cell-based; settings: Homo sapiens, DU-145, last dose that created an inhibitory effect on scattering, 24 h, read-out: DU145 SCATT. INHIB IC50
Description: Scatter assays in DU145. The scatter assay is performed as described previously (Miura H, Nishimura K, Tsujimura A, Matsumiya K, Matsumoto K, Nakamura T, et al. Effects of hepatocyte growth factor on E-cadherin-mediated cell-cell adhesion in DU145 prostate cancer cells. Urology 2001; 58(6):1064-9) for DU145 prostate carcinoma cells with the indicated modifications. In brief, DU145 cells (ATCC) are seeded in 24-well plates at a density of 7×10^3 cells/well in MEM medium complemented with 10% FBS and cultured for 48 h, to allow the formation of small compact colonies of cells. Inhibitors are subsequently added at a range of doses (0.00032-10 uM) for 3 h. Cells are then stimulated to migrate by the addition of HGF (in the form of conditioned medium from 293T cells over-expressing the human HGF gene) and the culture is continued for another 24 h. The IC50 values is defined as the last dose that created an inhibitory effect on scattering. For the purpose of standardization a control is carried on every test plates for the DU145 scattering assays.

c-Met = target: T2, c-Met (Homo sapiens, UniProt P08581); assay: Inhibition of c-Met phosphorylation in MKN45 cells (direct ELISA); assay type: cell-based; settings: 3 h treatment, read-out: CMET ELISA IN MKN45 IC50
T2 construct: endogenous in cells; host or cells: MKN45 gastric carcinoma cells
Text: The following assay is used to determine inhibition of c-Met phosphorylation.
The c-Met receptor is expressed in numerous cancer cell lines derived from tumors of epithelial origin. In MKN45 gastric carcinoma cells the c-Met gene is amplified, resulting in several-fold overexpression of the receptor and its constitutive activation. For this reason constitutively high levels of ERK1/2 are also detected in these cells, independently of HGF-added stimulation (Smolen G A, Sordella R, Muir B, Mohapatra G, Barmettler A, Archibald H, et al. Amplification of MET may identify a subset of cancers with extreme sensitivity to the selective tyrosine kinase inhibitor PHA-665752. Proc Natl Acad Sci USA 2006). We have developed a sensitive method to follow c-Met phosphorylation in these cells. In previous studies with earlier generation c-Met inhibitors, we established that the IC50s for the inhibition of c-Met phosphorylation were identical using this novel ELISA approach and standard western blot procedure, with antibodies directed against the activating autocatalysis tyrosine residues of c-MET (Tyr Y1230-34-35).
Cell treatments: MKN45 cells are seeded into wells of 96-well plates at a density of 3×10^4 cells/well in RPMI medium supplemented with 10% FBS. HA-TPR-RON expressing 293T (clone 18) cells are seeded into wells of 96-well plates at a density of 3×10^4 cells/well in DMEM medium supplemented with 10% FBS. Cells are grown for 48 h prior to treatments with compounds of interest. Inhibitors are added to the medium in triplicate wells at the indicated doses. After 3 h of treatment, media is aspirated and cells are lysed by one freeze-thaw cycle in 50 μL/well hypotonic lysis buffer (25 mM HEPES pH 7.5, 10 mM NaCl with 1 mM 4-(2-aminoethyl)benzenesulfonyl fluoride hydrochloride, 200 μM sodium orthovanadate, 1 mM sodium fluoride, 10 μg/mL of leupeptin, 10 μg/mL of aprotinin/mL, 1 μg/mL of pepstatin and 50 μg/mL Na-p-tosyl-L-lysine chloromethyl ketone hydrochloride.
Detection of phosphorylated c-Met by direct ELISA: Lysate samples (5 μL) from wells of treatment plates are transferred to 80 μL of binding buffer (25 mM HEPES pH 7.5, 200 mM NaCl) in wells of high binding white polysterene 96-well plates (Corning). After an overnight protein binding incubation at 4° C., lysates are aspirated and wells are blocked for 1 h at 37° C. in TBST supplemented with 5% BSA. Plates are incubated with the primary antibodies anti-phospho-Tyrosine (Millipore, 4G10) diluted 1/15000 in TBST supplemented with 5% BSA for 1 h at room temperature. Plates are washed 3 times on a plate washer (SkanWasher, Molecular Devises), and incubated with the reporter antibody […] (Sigma) diluted 1/15000 in TBST supplemented with 5% BSA, for 1 h at room temperature. Plates are washed 3 times with TBST using on a plate washer and subsequently incubated with chemiluminescent substrate solution (ECL, Roche). Luminescence signal is captured on a Polar Star Optima apparatus (BMG LabTech).
Average values of the triplicate samples are used to prepare IC50 curves using a 4-parameter fit model. These curves are calculated using, for example, GraFit 5.0 software. For assay standardization purpose, an internal control is included on each experimental test plate.

[1] = target: recombinant human c-Met/HGF receptor (Homo sapiens, UniProt P08581); assay: In vitro receptor tyrosine kinase assay (DELFIA), c-Met/HGF receptor
MKN45 tumor = assay: In vivo solid tumor disease model, MKN45; parameters: species or system mice; settings: Mus musculus, MKN-45, po, read-out: Tumor Growth Inhibition (%); for inhibition in vivo at 20 mg/kg: MKN45, 20 mg/kg orally daily; for inhibition in vivo at 40 mg/kg: 336 h, MKN45, 40 mg/kg orally daily, 14 days

T1 sequence (P35968 806-1356): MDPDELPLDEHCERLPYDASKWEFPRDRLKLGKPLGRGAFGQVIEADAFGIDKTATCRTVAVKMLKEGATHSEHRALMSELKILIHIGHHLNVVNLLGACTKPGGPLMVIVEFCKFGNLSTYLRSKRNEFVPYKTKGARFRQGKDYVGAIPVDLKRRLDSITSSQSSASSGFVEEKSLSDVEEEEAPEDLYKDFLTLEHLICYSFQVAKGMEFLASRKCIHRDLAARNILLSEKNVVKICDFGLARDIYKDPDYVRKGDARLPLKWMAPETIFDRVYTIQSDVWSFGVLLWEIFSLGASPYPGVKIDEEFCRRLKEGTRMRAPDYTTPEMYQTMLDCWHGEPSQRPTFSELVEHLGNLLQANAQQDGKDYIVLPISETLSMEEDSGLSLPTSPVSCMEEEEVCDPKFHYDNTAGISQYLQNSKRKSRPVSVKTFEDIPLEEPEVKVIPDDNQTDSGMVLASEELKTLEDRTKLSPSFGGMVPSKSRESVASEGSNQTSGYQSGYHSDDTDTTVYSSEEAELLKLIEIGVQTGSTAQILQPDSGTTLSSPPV
T2 sequence (P08581 25-1390): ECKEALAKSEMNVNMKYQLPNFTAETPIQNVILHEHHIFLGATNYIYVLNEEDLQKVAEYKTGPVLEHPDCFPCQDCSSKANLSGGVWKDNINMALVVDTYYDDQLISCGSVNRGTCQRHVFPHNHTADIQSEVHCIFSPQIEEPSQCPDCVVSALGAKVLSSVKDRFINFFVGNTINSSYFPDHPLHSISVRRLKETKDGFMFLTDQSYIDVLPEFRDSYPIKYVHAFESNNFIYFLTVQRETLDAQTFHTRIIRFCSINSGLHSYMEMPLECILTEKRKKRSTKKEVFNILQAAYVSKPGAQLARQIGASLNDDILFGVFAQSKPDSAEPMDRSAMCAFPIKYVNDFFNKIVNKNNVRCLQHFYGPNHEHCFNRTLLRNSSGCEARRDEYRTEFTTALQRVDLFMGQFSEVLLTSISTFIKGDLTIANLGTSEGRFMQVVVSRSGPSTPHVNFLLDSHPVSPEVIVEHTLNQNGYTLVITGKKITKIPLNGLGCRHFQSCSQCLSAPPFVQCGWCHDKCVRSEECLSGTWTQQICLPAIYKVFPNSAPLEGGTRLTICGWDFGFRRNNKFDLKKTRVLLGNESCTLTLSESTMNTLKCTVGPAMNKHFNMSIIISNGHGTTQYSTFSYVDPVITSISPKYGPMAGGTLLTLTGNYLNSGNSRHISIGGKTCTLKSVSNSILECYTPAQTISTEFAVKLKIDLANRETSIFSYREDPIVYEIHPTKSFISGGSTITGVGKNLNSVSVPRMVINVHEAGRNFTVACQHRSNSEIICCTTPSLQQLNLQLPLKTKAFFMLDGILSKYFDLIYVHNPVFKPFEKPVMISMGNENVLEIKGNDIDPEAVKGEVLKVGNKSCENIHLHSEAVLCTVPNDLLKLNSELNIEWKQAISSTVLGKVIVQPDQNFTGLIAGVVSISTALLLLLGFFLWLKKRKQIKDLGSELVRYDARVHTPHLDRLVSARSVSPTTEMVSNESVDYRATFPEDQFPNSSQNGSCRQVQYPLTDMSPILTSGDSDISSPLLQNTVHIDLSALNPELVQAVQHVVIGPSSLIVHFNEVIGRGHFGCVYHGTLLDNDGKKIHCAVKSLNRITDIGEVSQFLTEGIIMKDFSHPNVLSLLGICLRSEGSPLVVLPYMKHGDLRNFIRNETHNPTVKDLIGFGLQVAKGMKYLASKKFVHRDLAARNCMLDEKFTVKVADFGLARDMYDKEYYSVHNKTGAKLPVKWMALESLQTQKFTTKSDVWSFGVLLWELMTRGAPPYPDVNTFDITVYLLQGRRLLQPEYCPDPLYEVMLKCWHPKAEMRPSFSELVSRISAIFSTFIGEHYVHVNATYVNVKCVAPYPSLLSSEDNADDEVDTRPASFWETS
Sequence of recombinant human c-Met/HGF receptor (P08581 1078-1337): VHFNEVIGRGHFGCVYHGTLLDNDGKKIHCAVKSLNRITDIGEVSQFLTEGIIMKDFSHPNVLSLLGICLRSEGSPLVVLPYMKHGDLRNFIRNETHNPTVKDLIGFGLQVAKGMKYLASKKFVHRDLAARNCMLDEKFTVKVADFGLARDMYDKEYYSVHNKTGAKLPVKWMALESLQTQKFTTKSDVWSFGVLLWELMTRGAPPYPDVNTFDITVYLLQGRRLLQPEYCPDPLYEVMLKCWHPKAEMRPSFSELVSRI

Row | IC50 (VEGF receptor KDR) [µM] | IC50 (A549 cells) [µM] | IC50 (DU145 cells) [µM] | IC50 (c-Met) [µM] | IC50 [1] [µM] | SMILES | inhibition in vivo at 20 mg/kg (MKN45 tumor; 168 h, 7 days) [%] | inhibition in vivo at 20 mg/kg (MKN45 tumor; 192 h, 8 days) [%] | inhibition in vivo at 40 mg/kg (MKN45 tumor) [%] | inhibition in vivo at 20 mg/kg (MKN45 tumor; 312 h, 13 days) [%]
1 | 0.25 to 0.5 | 0.25 to 0.5 | 0.25 to 0.5 | < 0.25 | < 0.25 | COCCNCc1ccc(-c2cc3nccc(Oc4ccc(NC(=S)NC(=O)Cc5ccccc5)cc4F)c3s2)cn1 [drawing 308] |  |  |  | 
2 | < 0.25 | 0.25 to 0.5 | < 0.25 | < 0.25 | < 0.25 | COCCNCc1ccc(-c2cc3nccc(Oc4ccc(NC(=S)NC(=O)Cc5ccc(F)cc5)cc4F)c3s2)cn1 [drawing 309] |  |  |  | 
3 | < 0.25 | < 0.25 | < 0.25 | < 0.25 | < 0.25 | COCCNCc1ccc(-c2cc3nccc(Oc4ccc(NC(=O)C5(C(=O)Nc6ccccc6)CC5)cc4F)c3s2)cc1 [drawing 310] |  |  |  | 
4 | < 0.25 | 0.25 to 0.5 | 0.25 to 0.5 | < 0.25 | < 0.25 | COCCNCc1ccc(-c2cc3nccc(Oc4ccc(NC(=S)NC(=O)Cc5ccccc5OC)cc4F)c3s2)nc1 [drawing 311] |  |  |  | 
5 | < 0.25 | 0.25 to 0.5 | 0.25 to 0.5 | < 0.25 | < 0.25 | COCCNCCn1cnc(-c2cc3nccc(Oc4ccc(NC(=S)NC(=O)Cc5ccc(F)cc5)cc4F)c3s2)c1 [drawing 318] |  |  |  | 
6 | < 0.25 | 0.25 to 0.5 | 0.25 to 0.5 | < 0.25 | < 0.25 | COCCNCCn1cc(-c2cc3nccc(Oc4ccc(NC(=S)NC(=O)Cc5ccccc5)cc4F)c3s2)cn1 [drawing 321] |  |  |  | 
7 | < 0.25 | 0.25 to 0.5 | 0.25 to 0.5 | < 0.25 | < 0.25 | COCCNCc1ccc(-c2cc3nccc(Oc4ccc(NC(=O)C5(C(=O)Nc6ccccc6)CC5)cc4F)c3s2)o1 [drawing 326] |  |  |  | 
8 | < 0.25 | < 0.25 | 0.25 to 0.5 | < 0.25 | < 0.25 | COCCNCCn1cc(-c2cc3nccc(Oc4ccc(NC(=O)CC(=O)N(C)c5ccccc5)cc4F)c3s2)cn1 [drawing 334] |  |  |  | 
9 | < 0.25 | < 0.25 | < 0.25 | < 0.25 | < 0.25 | CS(=O)(=O)CCNCc1ccc(-c2cc3nccc(Oc4ccc(NC(=O)C5(C(=O)Nc6ccccc6)CC5)cc4F)c3s2)cc1 [drawing 340] |  |  |  | 
10 | < 0.25 | < 0.25 | < 0.25 | < 0.25 | < 0.25 | COCCNCc1cnc(-c2cc3nccc(Oc4ccc(NC(=S)NC(=O)Cc5ccccc5)cc4F)c3s2)n1C [drawing 342] |  |  |  | 
11 | < 0.25 | 0.25 to 0.5 | 0.25 to 0.5 | < 0.25 | < 0.25 | COCCNCc1cnc(-c2cc3nccc(Oc4ccc(NC(=O)CC(=O)Nc5ccccc5)cc4F)c3s2)n1C [drawing 345] |  |  |  | 
12 | < 0.25 | 0.25 to 0.5 | 0.25 to 0.5 | < 0.25 | < 0.25 | COCCNCc1ccc(-c2cc3nccc(Oc4ccc(NC(=O)CC(=O)N(C)c5ccccc5)cc4F)c3s2)nc1 [drawing 346] |  |  |  | 
13 | < 0.25 | 0.25 to 0.5 | 0.25 to 0.5 | < 0.25 | < 0.25 | CN(C(=O)CC(=O)Nc1ccc(Oc2ccnc3cc(-c4ccc(CNCCS(C)(=O)=O)cc4)sc23)c(F)c1)c1ccccc1 [drawing 347] |  |  |  | 
14 | < 0.25 | < 0.25 | < 0.25 | < 0.25 | < 0.25 | COCCNCc1ccc(-c2cc3nccc(Oc4ccc(NC(=O)C5(C(=O)Nc6ccccc6)CC5)cc4F)c3s2)nc1 [drawing 350] |  |  |  | 
15 | < 0.25 | 0.25 to 0.5 | 0.25 to 0.5 | < 0.25 | < 0.25 | COCCNCc1ccc(-c2cc3nccc(Oc4ccc(NC(=O)CC(=O)N(C)c5ccc(F)cc5)cc4F)c3s2)nc1 [drawing 352] |  |  |  | 
16 |  |  |  |  |  | COC[C@H](C)NCc1cccc(-c2cc3nccc(Oc4ccc(NC(=S)NC(=O)Cc5ccc(F)cc5)cc4F)c3s2)c1 [drawing 361] | 25 to 50 |  |  | 
17 |  |  |  |  |  | COCCNCc1ccc(-c2cc3nccc(Oc4ccc(NC(=S)NC(=O)Cc5ccccc5)cc4F)c3s2)cn1 [drawing 362] |  | < 25 |  | 
18 |  |  |  |  |  | COCCNCc1ccc(-c2cc3nccc(Oc4ccc(NC(=S)NC(=O)Cc5ccc(F)cc5)cc4F)c3s2)cn1 [drawing 363] |  | 25 to 50 |  | 
19 |  |  |  |  |  | COCCNCc1ccc(-c2cc3nccc(Oc4ccc(NC(=O)C5(C(=O)Nc6ccccc6)CC5)cc4F)c3s2)cc1 [drawing 364] |  | ≥ 75 |  | 
20 |  |  |  |  |  | COCCNCc1ccc(-c2cc3nccc(Oc4ccc(NC(=S)NC(=O)Cc5ccccc5OC)cc4F)c3s2)nc1 [drawing 365] |  | 25 to 50 |  | 
21 |  |  |  |  |  | COCCNCCn1cc(-c2cc3nccc(Oc4ccc(NC(=O)CC(=O)N(C)c5ccccc5)cc4F)c3s2)cn1 [drawing 369] |  |  | < 25 | 
22 |  |  |  |  |  | COCCNCc1cnc(-c2cc3nccc(Oc4ccc(NC(=O)CC(=O)Nc5ccccc5)cc4F)c3s2)n1C [drawing 372] |  |  | 25 to 50 | 25 to 50
